PMC8599855, “Detection of cancer stem cells by EMT-specific biomarker-based peptide ligands” (Scientific Reports, 2021)
Read-outs that look alike come from different tables or passages of the source.

Columns and labels:
SAS cells [1] = assay: AlamarBlue cell viability assay; format: cell-based, human; details: for IC50: Homo sapiens, AlamarBlue
Method: Figure 3 In vitro induction of EMT and stemness with Unc0642/IR. (a) SAS cells were treated with indicated concentration of Unc0642 and Unc0642 + 2 Gy of radiation for 72 h respectively. Cell viability was assessed by AlamarBlue assay. All data were normalized to cells without treatment. Data are presented as mean ± SD. IC50 was calculated using SigmaPlot12 software. (b) Western blot analysis of CSC and EMT markers in SAS cells treated with different concentration of Unc 0642 (1.25 and 10 µM) and different dose of radiation (2 and 4 Gy) respectively. Internal control: b-actin. Right graph: the quantification of protein expression levels normalized against b-actin levels in each sample. *p < 0.05; **p < 0.01 by Student’s t-test. The blots were cropped from different parts of the same gel. The original blots and all replicates are presented in Supplementary Fig. 4.
SAS-wt, SAS-EGFP-Fluc and SAS-E2-crimson-P2A::ttksr39 cells were seeded in a 96-well cell culture plate at the density of 5x10^3 cells/well overnight and incubated with serial dilutions of Unc0642 (the concentration of Unc0642 was 0.625, 1.25, 2.5, […], 5, 10, 20, 40, 80 μM respectively in culture medium). Plates were then incubated 48 hours at 37 °C under 5% CO2. Relative cell viabilities were determined by a AlamarBlue assay. 10% v/v of AlamarBlue (Serotec, Oxon, UK) was added into each well and the well containing culture medium without cells served as negative controls. Absorbance was measured at 570 nm against a reference wavelength at 600 nm using a microplate reader (Tecan, Infinite 200 pro, Zürich, Switzerland) after incubation for 24 h at 37°C. Results were presented as the percentage of AlamarBlue reduction and were corrected to background values of negative controls. IC50 values were calculated from a log([drug]) versus normalized response curve fit using SigmaPlot12.

SAS cells [2] = assay: Western blot of EMT/CSC markers after in vitro induction of EMT; format: cell-based, human
Method: To induce the EMT of SAS cells, cells were seeded in 60 mm^2 dishes at the density of 1 × 10^6 cells/dish overnight and incubated with 1.25 and 10 μM Unc0642. After 24 h, cells were exposed under 2 Gy and 4 Gy of radiation by a RS2000 Series Biological Irradiator (Rad Source Technologies Inc, Buford, GA, USA) and replaced with fresh Unc0642 containing medium every 24 h. The expression of vimentin and E-cadherin were detected by western blotting.
Cultured cells were placed on ice, washed by ice-cold PBS and lysed using CytoBuster Protein Extraction Reagent (cat. 71,009, Bedford, MA, USA) containing Protease Inhibitor Cocktail Set I (cat. 539131, Millipore, Bedford, MA, USA). Cells were then scraped, collected in Eppendorf tubes and the sonicated for 30 min. The lysate was spun down at 12,000 g for 10 min at 4 °C. The protein content was measured using Bradford reagent (BIO-RAD, Hercules, CA, USA). The equal amounts of protein (40 μg) were separated in SDS-PAGE gels (30% Acrylamide/Bis Solution, 29:1, cat. 1610157, BIO-RAD, Hercules, CA, USA) and transferred to PVDF membranes (cat. NEF1002001PK, Perkin-Elmer life sciences, Boston, MA, USA). For immunoblotting, membranes were cut in terms of the molecular weight range prior to hybridization with primary antibody for vimentin (GTX100619, GeneTex, Irvine, CA, USA), nucleolin (GTX132778, GeneTex, Irvine, CA, USA), E-cadherin (GTX50757, GeneTex, Irvine, CA, USA) and b-actin (GTX109639, GeneTex, Irvine, CA, USA) overnight at 4 °C and then incubated with horseradish peroxidase HRP-conjugate goat anti-rabbit IgG (GeneTex, Irvine, CA, USA). Protein signals were visualized using a LumiFast Chemiluminescence Detection Kit (cat. JT96-K001S, T-Pro Biotechnology, Taiwan). Image capture was performed on an ImageQuant LAS4000 biomolecular image (GE healthcare life, Chicago, IL, USA). The intensities of protein bands were quantitated using ImageJ Gel Analysis program. Quantification of protein expression was performed by Image J. b-actin was used as loading control.

[3] = Body weight of xenograft mice; format: in vivo, mouse
Method: All animal procedures were performed in accordance with the Guide for Care and Use of Laboratory Animals and National Yang-Ming University’s IACUC number was 1080110. Immunodeficient male mice (BALB/cAnNCrj-nu/nu, six weeks old, 20 gm) were provided by National Laboratory Animal Center (NLAC), NARLabs, Taiwan. Mice were group-housed (6 animals per cage) in individually ventilated cages (IVC) systems and had unlimited access to food and water. […] For establishment of xenografts, 2 × 10^6 SAS-EGFP-Fluc cells in 100 μL phosphate-buffered saline (PBS) were injected subcutaneously into the animal's right shoulder and 2 × 10^6 SAS-wt cells were injected into the left leg. Growth of the implanted tumors was monitored twice a week and tumor volumes were estimated from caliper measurements according to the following formula: tumor volume = (lengthÍwidth^2) Í0.523. When tumor size reached approximately 10 mm^3, the mice were randomized into four groups of five animals per group for the following treatments: (1) DMSO (1 ml/kg body weight), (2) Unc0642 (2.5 mg/kg body weight), (3) 2 Gy of radiation, (4) Unc0642 (2.5 mg/kg body weight) and 2 Gy of radiation. Mice were given Unc0642 (cat. SML1037, Sigma-Aldrich, St. Louis, MO) intraperitoneally (i.p) every two days for 3 times. […]

[4] = UNC0642 5 mg/kg body weight, UBC xenograft model, any time point post-treatment; cited from earlier work
Excerpt: In the current study, we successfully established a protocol for EMT induction via the combination of the G9a inhibitor and low-dose IR. G9a, mainly catalyzes histone H3K9 methylation, is shown to be overexpressed in many types of cancers, including gastric cancer, ovarian cancer, head and neck cancer, etc. Higher G9a expression levels represent higher methylation levels, thus leading to the transcriptional repression of tumor-suppressor genes and are also associated with poor prognosis in patients. Liu et al. explored that snail-induced EMT and repression of E-cadherin in head and neck sq ...

For `COc1cc2c(NC3CCN(C(C)C)CC3)nc(N3CCC(F)(F)CC3)nc2cc1OCCCN1CCCC1` [Unc0642], the “Effect on cell proliferation at the peak dose” value (SAS cells [1]; 1.25 μM Unc0642, single treatment or combined with IR, SAS cells) was “could induce cell proliferation”, the IC50 (SAS cells [1]; SAS cells exposed to Unc0642 alone for 72 h, normalized to untreated cells, SigmaPlot12 fit, read-out: IC50 (50% inhibition concentration), cell viability) was 12.1 µM and the IC50 (SAS cells [1]; SAS cells, Unc0642 combined with 4 Gy of IR, 72 h, read-out: IC50, cell viability, combined with IR) was 4.79 µM. The Vimentin expression (SAS cells [2]; 1.25 μM Unc0642, western blot) was “increased”, the Nucleolin level (SAS cells [2]; 1.25 μM Unc0642, western blot, p < 0.05) was “slightly increased” and the Vimentin expression (SAS cells [2]; 10 μM Unc0642, western blot) was “almost unchanged”. For the same compound, the “Vimentin expression versus control SAS cells” value (SAS cells [2]; 2 Gy of IR and 1.25 μM Unc0642, western blot normalized to b-actin, p < 0.01) was “~ twofold”, the E-cadherin protein expression (SAS cells [2]; Unc0642 alone, western blot) was “diminished protein expression level” and the “Body weight versus DMSO control” value ([3]; Unc0642 2.5 mg/kg i.p. alone) was “no difference”. The Body weight ([3]; combined Unc0642 2.5 mg/kg i.p. and 2 Gy IR, until end point, p < 0.001) was “Drastic weight loss” and the “Body weight versus vehicle-treated group” value [4] was “no significant weight changes”.
